Tests used:
Type in all cases: cell-based
Raji [1] = assay: Inhibition of TPA-induced EBV-early antigen activation in human Raji cells at 1000 molar ratio after 48 hrs relative to TPA; set-up: scale not given: the % may be the effect or the level left; conditions: human gammaherpesvirus 4
Raji [2] = assay: Inhibition of TPA-induced EBV-early antigen activation in human Raji cells at 500 molar ratio after 48 hrs relative to TPA; set-up: scale not given: the % may be the effect or the level left; conditions: human gammaherpesvirus 4
Raji [3] = assay: Inhibition of TPA-induced EBV-early antigen activation in human Raji cells at 100 molar ratio after 48 hrs relative to TPA; set-up: scale not given: the % may be the effect or the level left; conditions: human gammaherpesvirus 4
Raji [4] = assay: Inhibition of TPA-induced EBV-early antigen activation in human Raji cells at 10 molar ratio after 48 hrs relative to TPA; set-up: scale not given: the % may be the effect or the level left; conditions: human gammaherpesvirus 4
[5] = Cytotoxicity against human Raji cells assessed as cell viability at 1000 molar ratio after 48 hrs by trypan blue assay; conditions: read-out: Activity

| SMILES | Activity (Raji [1]) [%] | Activity (Raji [2]) [%] | Activity (Raji [3]) [%] | Activity (Raji [4]) [%] | viability at 48 h, 1000 molar ratio [5] [%] |
| --- | --- | --- | --- | --- | --- |
| CC(C)=CCC[C@@H](C)[C@@H]1CC[C@]2(C)C3=CC[C@H]4C(C)(C)[C@@H](O)CC[C@]4(C)C3=CC[C@@]12C [ANTIQUOL C] | 0 | 28.2 | 75 | 92.8 | 70 |
| CC(C)=CCC[C@@H](C)[C@@H]1CC[C@]2(C)[C@H]3CCC(=C(C)C)[C@@H](CCCO)[C@]3(C)CC[C@@]12C [ISOHELIANOL] | 0 | 25.8 | 72.4 | 95.7 | 70 |
| CC(C)=CCC[C@@H](C)[C@@H]1CC[C@]2(C)C3=C(CC[C@@]12C)[C@@]1(C)CC[C@H](O)C(C)(C)[C@@H]1CC3 [EUPHOL] | 0 | 29.8 | 75.7 | 93.5 | 70 |
| C=C(CC[C@H](C)[C@@H]1CC[C@]2(C)C3=C(CC[C@@]12C)[C@@]1(C)CC[C@H](O)C(C)(C)[C@@H]1CC3)C(C)C [EUPHORBOL] | 0 | 32.6 | 77.9 | 95.8 | 70 |
| CC1=C(/C=C/C(C)=C/C=C/C(C)=C/C=C/C=C(C)/C=C/C=C(C)/C=C/C2=C(C)CCCC2(C)C)C(C)(C)CCC1 | 8.6 |  |  | 100 |  |
| CC(C)=CCC/C(C)=C/CC/C(C)=C/CC/C=C(\C)CC[C@@H]1C(C)=CC[C@H](O)C1(C)C [CAMELLIOL C] | 20.1 | 51.5 | 86.3 | 100 | 70 |
| CC(C)=CCC[C@]1(C)CC[C@]2(C)C3=CC[C@H]4C(C)(C)[C@@H](O)CC[C@]4(C)[C@H]3CC[C@@]2(C)C1 | 2.2 | 33.8 | 79.4 | 97.2 | 70 |

Source: ChEMBL document CHEMBL1159314, “Eupha-7,9(11),24-trien-3beta-ol ("antiquol C") and other triterpenes from Euphorbia antiquorum latex and their inhibitory effects on Epstein-Barr virus activation” (J Nat Prod, 2002)
